Test: PK study of SM components in plasma of AIA rats by UPLC-MS/MS (MG vs MPS group)
Settings: for AUC 0-t / AUC 0-∞ / C max / T max / t 1/2 / AUC(0-inf) / Cmax / Tmax / half-life: then oral SM 39.2 g crude drug/kg, plasma, mean ± SEM; for Absorption under the intervention of PS: MPS vs MG group; for Cmax: C max; for Tmax: T max
[1] = MG group: AIA rats, saline 21 days
[2] = MPS group compared with the MG group, AIA rats
[3] = MPS group: AIA rats, oral PS 9.8 g crude drug/kg/day 21 days
[4] = Sprague-Dawley, rat, po, 39.2 g/kg/day, AUC 0-t, MPS group: AIA rats, oral PS 9.8 g crude drug/kg/day 21 days
[5] = Sprague-Dawley, rat, po, 39.2 g/kg/day, MG group: AIA rats, saline 21 days
[6] = Sprague-Dawley, rat, po, 39.2 g/kg/day, MPS group: AIA rats, oral PS 9.8 g crude drug/kg/day 21 days
[7] = Sprague-Dawley, rat, po, 39.2 g/kg/day, t 1/2, MG group: AIA rats, saline 21 days
[8] = Sprague-Dawley, rat, po, 39.2 g/kg/day, t 1/2, MPS group: AIA rats, oral PS 9.8 g crude drug/kg/day 21 days
[9] = Sprague-Dawley, rat, po, 39.2 g/kg/day, AUC 0-t, MG group: AIA rats, saline 21 days

Protocol: In the PK study, 12 SD rats were divided into model group (MG group) and model + polysaccharide group (MPS group). Rats in the MPS group were given PS (9.8 g crude drug/kg/day) by oral administration, while rats in the MG group received the same amount of saline. After continuous administration for 21 days, rats in both groups were given SM (39.2 g crude drug/kg/day), and two groups of rats were subjected to a PK study.
The supernatant was collected and dried with N2, redissolved with 100 μL methanol, and centrifuged again after 10 min centrifugation at 4 °C, 13000 rpm. Then the supernatant was collected for UPLC-MS /MS analysis.
The Shimadzu UPLC-MS/MS system was used for the PK study. […] The multiple reaction monitoring (MRM) mode was used both in positive and negative mode. The MS parameters were as follows: flow rate of heating gas 10 L/min, flow rate of drying gas 10 L/min, flow rate of atomizing gas 3 L/min, interfacial temperature 300 ℃, DL temperature 250 ℃.
Separation was performed using a Waters ACQUITY UPLC BEH C18 column (2.1 mm × 100 mm, 1.7 μm). The mobile phase was 0.1% formic acid water (v/v) (A) and acetonitrile (B).

For C[C@]12C[C@@H](O)[C@@H]3C[C@@]1(O[C@@H]1O[C@H](CO)[C@@H](O)[C@H](O)[C@H]1O)[C@@]3(COC(=O)c1ccccc1)C(=O)O2 [Albiflorin], the “AUC 0-t” value [1] was 424.990 ± 55.691 ng·h/mL, the “AUC 0-∞” value [1] was 458.506 ± 69.994 ng·h/mL and the C max [1] was 287.831 ± 42.177 ng/mL. The T max [1] was 0.250 ± 0.001 h, the “t 1/2” value [1] was 2.488 ± 0.458 h and the “Change of AUC 0-t after oral PS” value [2] was “increased”. The “Change of AUC 0-∞ after oral PS” value [2] was “increased”, the “AUC 0-t” value [3] was 644.268 ± 174.084 ng·h/mL and the “AUC 0-∞” value [3] was 698.946 ± 175.788 ng·h/mL. For the same compound, the C max [3] was 306.851 ± 57.880 ng/mL, the T max [3] was 0.139 ± 0.072 h and the “t 1/2” value [3] was 1.669 ± 0.080 h. For the same compound, the “Absorption under the intervention of PS” value (AIA rats) was “increased”.

With CCN1C[C@]2(COC)[C@H](O)C[C@H](OC)[C@@]34[C@@H]5C[C@@]6(O)[C@H](OC(=O)c7ccccc7)[C@@H]5[C@@](O)([C@@H]([C@H](OC)[C@H]23)[C@@H]14)[C@@H](O)[C@@H]6OC [Benzoylaconine] the “AUC 0-t” value [1] was 0.764 ± 0.082 ng·h/mL, the “AUC 0-∞” value [1] was 1.015 ± 0.158 ng·h/mL and the C max [1] was 0.548 ± 0.178 ng/mL. For the same compound, the T max [1] was 0.125 ± 0.072 h, the “t 1/2” value [1] was 7.430 ± 5.148 h and the “AUC 0-t” value [3] was 1.064 ± 0.136 ng·h/mL. For the same compound, the “AUC 0-∞” value [3] was 1.202 ± 0.128 ng·h/mL, the C max [3] was 0.720 ± 0.116 ng/mL and the T max [3] was 0.083 ± 0.001 h. For the same compound, the “t 1/2” value [3] was 3.875 ± 1.842 h.

For COC[C@@]12CC[C@H](OC)[C@]34C([C@H]([C@H](OC)[C@H]13)[C@]1(O)[C@H]3[C@@H](OC(=O)c5ccccc5)[C@](O)(C[C@H]34)[C@@H](OC)[C@@H]1O)N(C)C2 [Benzoylhypaconine], the “AUC 0-t” value [1] was 1.018 ± 0.049 ng·h/mL, the “AUC 0-∞” value [1] was 1.123 ± 0.062 ng·h/mL and the C max [1] was 0.467 ± 0.108 ng/mL. For the same compound, the T max [1] was 0.083 ± 0.001 h, the “t 1/2” value [1] was 3.938 ± 0.322 h and the “Change of AUC 0-∞ after oral PS” value [2] was “increased”. The “Change of C max after oral PS” value [2] was “increased”, the “AUC 0-t” value [3] was 1.394 ± 0.255 ng·h/mL and the “AUC 0-∞” value [3] was 1.604 ± 0.229 ng·h/mL. For the same compound, the C max [3] was 0.861 ± 0.160 ng/mL, the T max [3] was 0.083 ± 0.001 h and the “t 1/2” value [3] was 4.742 ± 0.904 h. For the same compound, the “Absorption under the intervention of PS” value (AIA rats) was “increased”.

In the case of COC[C@]12CN(C)C3[C@@H]4[C@H](OC)[C@H]1[C@@]3([C@@H](OC)C[C@H]2O)[C@@H]1C[C@@]2(O)[C@H](OC(=O)c3ccccc3)[C@@H]1[C@]4(O)[C@@H](O)[C@@H]2OC [Benzoylmesaconitine], the “AUC 0-t” value [1] is reported as 21.413 ± 1.140 ng·h/mL, the “AUC 0-∞” value [1] is reported as 23.447 ± 1.422 ng·h/mL and the C max [1] is reported as 14.305 ± 3.689 ng/mL. The T max [1] was 0.139 ± 0.079 h, the “t 1/2” value [1] was 3.530 ± 0.873 h and the “AUC 0-t” value [3] was 25.368 ± 7.147 ng·h/mL. The “AUC 0-∞” value [3] was 25.465 ± 7.145 ng·h/mL, the C max [3] was 15.899 ± 4.818 ng/mL and the T max [3] was 0.083 ± 0.001 h. For the same compound, the “t 1/2” value [3] was 1.723 ± 0.296 h.

In the case of COc1ccc(-c2coc3cc(O[C@@H]4O[C@H](CO)[C@@H](O)[C@H](O)[C@H]4O)ccc3c2=O)cc1O [Calycosin-7-glycoside], the “AUC 0-t” value [1] is reported as 17.473 ± 2.858 ng·h/mL, the “AUC 0-∞” value [1] is reported as 18.097 ± 2.629 ng·h/mL and the C max [1] is reported as 17.607 ± 2.640 ng/mL. The T max [1] was 0.110 ± 0.062 h, the “t 1/2” value [1] was 2.342 ± 0.959 h and the “AUC 0-t” value [3] was 15.987 ± 2.778 ng·h/mL. The “AUC 0-∞” value [3] was 16.625 ± 2.476 ng·h/mL, the C max [3] was 15.506 ± 2.308 ng/mL and the T max [3] was 0.083 ± 0.001 h. For the same compound, the “t 1/2” value [3] was 2.113 ± 0.779 h.

In the case of COc1ccc(-c2coc3cc(O)ccc3c2=O)cc1 [Formononetin], the “AUC 0-t” value [1] is reported as 15.278 ± 1.823 ng·h/mL, the “Change of C max after oral PS” value [2] is reported as “reduced” and the “Absorption under the intervention of PS” value (AIA rats) is reported as “decreased”. It also gave an AUC 0-t [4] of 12.3 ± 1.98 ng·h/mL, an AUC(0-inf) [5] of 17.5 ± 1.69 ng·h/mL and an AUC(0-inf) [6] of 13.6 ± 1.93 ng·h/mL. It also gave a Cmax [5] of 7.39 ± 1.16 ng/mL, a Cmax [6] of 4.5 ± 0.902 ng/mL and a Tmax [5] of 0.083 ± 0.001 h. For the same compound, the Tmax [6] was 0.25 ± 0.001 h, the half-life [7] was 4.27 ± 0.406 h and the half-life [8] was 3.76 ± 0.557 h.

CC1(C)[C@@H](O)CC[C@]2(C)[C@H]3C(=O)C=C4[C@@H]5C[C@@](C)(C(=O)O)CC[C@]5(C)CC[C@@]4(C)[C@]3(C)CC[C@@H]12 [Glycyrrhetinic acid] gave an AUC 0-t [9] of 28800 ng·h/mL, an AUC 0-t [4] of 30500 ng·h/mL and an AUC(0-inf) [5] of 32900 ng·h/mL. The AUC(0-inf) [6] was 34500 ng·h/mL, the Cmax [5] was 7830 ± 283 ng/mL and the Cmax [6] was 11600 ng/mL. The Tmax [5] was 2 ± 0.001 h, the Tmax [6] was 2 ± 0.001 h and the half-life [7] was 10.7 ± 3.72 h. It also gave a half-life [8] of 10.8 ± 1.96 h.

With CC1(C)[C@@H](O[C@H]2O[C@H](C(=O)O)[C@@H](O)[C@H](O)[C@H]2O[C@@H]2O[C@H](C(=O)O)[C@@H](O)[C@H](O)[C@H]2O)CC[C@]2(C)[C@H]3C(=O)C=C4[C@@H]5C[C@@](C)(C(=O)O)CC[C@]5(C)CC[C@@]4(C)[C@]3(C)CC[C@@H]12 [Glycyrrhizic acid] the “t 1/2” value [1] was 7.605 ± 1.142 h, the “Change of C max after oral PS” value [2] was “significantly increased” and the “Absorption under the intervention of PS” value (AIA rats) was “increased”. The AUC 0-t [9] was 23100 ng·h/mL, the AUC 0-t [4] was 29600 ng·h/mL and the AUC(0-inf) [5] was 25900 ng·h/mL. It also gave an AUC(0-inf) [6] of 27400 ng·h/mL, a Cmax [5] of 3800 ± 304 ng/mL and a Cmax [6] of 5200 ± 706 ng/mL. It also gave a Tmax [5] of 0.5 ± 0.001 h, a Tmax [6] of 0.667 ± 0.236 h and a half-life [8] of 7.25 ± 0.086 h.

For O=C(/C=C/c1ccc(O)cc1)c1ccc(O)cc1O [Isoliquiritigenin], the “Change of C max after oral PS” value [2] was “significantly increased”, the “Absorption under the intervention of PS” value (AIA rats) was “increased” and the AUC 0-t [9] was 8.76 ± 1.42 ng·h/mL. For the same compound, the AUC 0-t [4] was 9.47 ± 1.45 ng·h/mL, the AUC(0-inf) [5] was 9.61 ± 1.6 ng·h/mL and the AUC(0-inf) [6] was 10.5 ± 1.27 ng·h/mL. The Cmax [5] was 4 ± 0.545 ng/mL, the Cmax [6] was 5.42 ± 0.422 ng/mL and the Tmax [5] was 0.083 ± 0.001 h. For the same compound, the Tmax [6] was 0.167 ± 0.083 h, the half-life [7] was 3.12 ± 0.571 h and the half-life [8] was 3.87 ± 0.889 h.

In the case of O=C1C[C@@H](c2ccc(O)cc2)Oc2cc(O)ccc21 [Liquiritigenin], the “AUC 0-t” value [1] is reported as 48.549 ± 6.497 ng·h/mL, the “AUC 0-∞” value [1] is reported as 49.404 ± 6.315 ng·h/mL and the C max [1] is reported as 25.519 ± 7.560 ng/mL. For the same compound, the T max [1] was 0.139 ± 0.079 h, the “t 1/2” value [1] was 1.841 ± 0.242 h and the “AUC 0-t” value [3] was 47.195 ± 4.360 ng·h/mL. For the same compound, the “AUC 0-∞” value [3] was 47.548 ± 4.374 ng·h/mL, the C max [3] was 23.367 ± 4.695 ng/mL and the T max [3] was 0.083 ± 0.001 h. The “t 1/2” value [3] was 1.448 ± 0.025 h.

With CCN1C[C@]2(COC)CC[C@H](O)[C@]34C1[C@H]([C@H](OC)[C@H]23)[C@@]1(O)C[C@H](OC)[C@H]2C[C@@H]4[C@@H]1[C@H]2O [Neoline] the “AUC 0-t” value [1] was 7.417 ± 0.718 ng·h/mL, the “AUC 0-∞” value [1] was 8.058 ± 0.838 ng·h/mL and the C max [1] was 3.221 ± 1.040 ng/mL. The T max [1] was 0.333 ± 0.118 h, the “t 1/2” value [1] was 3.245 ± 0.999 h and the “AUC 0-t” value [3] was 7.559 ± 0.880 ng·h/mL. For the same compound, the “AUC 0-∞” value [3] was 7.980 ± 0.757 ng·h/mL, the C max [3] was 3.695 ± 1.005 ng/mL and the T max [3] was 0.250 ± 0.001 h. The “t 1/2” value [3] was 2.486 ± 0.349 h.

In the case of CCN1C[C@]2(COC)CC[C@H](OC)[C@]34C1[C@H](C[C@H]23)[C@@]1(O)C[C@H](OC)[C@H]2C[C@@H]4[C@@H]1[C@H]2O [Talatizamine], the “AUC 0-t” value [1] is reported as 21.996 ± 1.581 ng·h/mL, the “AUC 0-∞” value [1] is reported as 30.766 ± 4.871 ng·h/mL and the C max [1] is reported as 3.376 ± 0.595 ng/mL. The T max [1] was 0.417 ± 0.276 h, the “t 1/2” value [1] was 6.242 ± 1.838 h and the “AUC 0-t” value [3] was 22.338 ± 1.786 ng·h/mL. The “AUC 0-∞” value [3] was 28.106 ± 2.545 ng·h/mL, the C max [3] was 3.576 ± 0.320 ng/mL and the T max [3] was 0.292 ± 0.093 h. For the same compound, the “t 1/2” value [3] was 5.163 ± 1.483 h.
